# Measured values published in PubChem BioAssay AID2305 (GlaxoSmithKline (GSK), 2010).
# Test system: P. falciparum 3D7 growth, pLDH absorbance
# Assay: P. falciparum 3D7 growth inhibition, dose response, strain 3D7 (AID 2305)
row,SMILES,IC50 [nM]
1,COc1ccccc1CNc1ccnc(NCCc2cccc(C(F)(F)F)c2)n1,930
2,c1ccc2[nH]c(-c3ccc(-c4ccc(CN5CCN(c6ccncc6)CC5)cc4)s3)nc2c1,200
3,Clc1ccc2c(NN=Cc3ccco3)ccnc2c1,1100
4,O=C(Nc1ccc(-c2cccc(CN3CCC(O)CC3)c2)cc1)c1cccc(Cl)c1,830
5,c1ccc2c(CNc3ccnc(NCc4cccc5ccccc45)n3)cccc2c1,560
6,COc1ccc(Cn2c(Nc3cccc(C(F)(F)F)c3)nc3cc(C(=O)NCCN4CCCC4)cnc32)cc1Cl,920
7,COc1ccc(CN2CCCN(Cc3cccc(C(=O)Nc4ccc(C(C)(C)C)cc4)c3)CC2)cc1,890
8,COc1ccc(NC(=O)NC2CCN(c3ccnc4ccccc34)C2)cc1 (centres undefined),870
9,CC(C)(C)c1cc(Cn2ccnc2)cc(C(C)(C)C)c1O,1040
10,Cc1cc(NN=Cc2ccccc2Cl)c2cc(C(F)(F)F)ccc2n1,860
11,O=C(Nc1cccc(CN2CCCN(Cc3ccsc3)CC2)c1)c1ccc(Cl)c(Cl)c1,880
12,COc1ccc(Nc2nc(NN=Cc3ccc(O)cc3)nc(Nc3ccc([N+](=O)[O-])cc3)n2)cc1,1120
13,COc1cccc(Cc2c(C)nc3nc(N)nc(N)c3c2C)c1,880
14,COc1ccc(CCNC(=O)c2ccc(-n3cc(NC(=O)c4cccnc4)cn3)cc2)cc1OC,1070
15,Cc1nnc(-c2cccc(Nc3ccnc4cc(-c5nccs5)ccc34)c2)o1,630
16,Cc1cccc2[nH]c(-c3cccc(-c4cccc(NC(=O)c5ccncc5)c4)c3)nc12,240
17,O=C(/C=C/c1ccc(Cl)c(Cl)c1)NCCCCCN1CCC(c2c[nH]c3ccc(O)cc23)CC1,890
18,COc1ccc(-c2cccc(NC(=O)c3ccc(Cl)cc3)c2)cc1CNC(C)C,690
19,CN1CCN(c2ccnc3cc4ccccc4cc23)CC1,950
20,O=C(Nc1ccccc1C(F)(F)F)Nc1nn(Cc2c(F)cccc2Cl)cc1Br,340
21,O=C(Nc1ccc(F)cc1F)NC1CCN(CCCCCNC(=O)[C@@H]2C[C@H]2c2ccc(Cl)c(Cl)c2)CC1,500
22,COc1ccc(CNC2CCN(C)CC2)cc1-c1ccc(S(=O)(=O)NCc2ccccc2)cc1,600
23,Cc1ccc(-c2cc(C(=O)Nc3ccc(S(=O)(=O)N4CCOCC4)cc3)[nH]n2)c(O)c1C,920
24,COc1cc(Cc2cnc(N)nc2N)cc(OCc2cccc(C(=O)O)c2)c1OC,830
25,O=C(Nc1cccc(N2CCC(NCc3cnn(-c4cccc(F)c4)c3)CC2)c1)c1ccncc1,1390

row,SMILES,IC50 [nM]
1,CCOc1cc(NCCCNc2ncc([N+](=O)[O-])cc2C)nc2ccccc12,690
2,CCCC1CCNC(C(O)c2ccnc3ccc(OC)cc23)C1 (centres undefined),430
3,CCCN1CCN(c2cc(NCC)c3c4c(onc24)-c2ccccc2C3=O)CC1,1060
4,COc1ccc(-c2nc3c4cc(I)ccc4c4ccccc4c3[nH]2)cc1,1100
5,O=C(CSc1ccccn1)Nc1c(F)cccc1F,1210
6,O=C(NC1CC1)c1cnc(N2CCN(Cc3ccc(Cl)cc3)CC2)c(Cl)c1,850
7,NOCCCCOc1cc(Cl)c(Cl)cc1Cl,170
8,Cc1cc(C(=O)CN2C(=O)NC3(CCOc4ccccc43)C2=O)c(C)n1Cc1ccc(F)cc1 (centres undefined),880
9,CCN(CC)C(=NCCCCCCN=C(/N=C(/N)Nc1ccc(Br)cc1)N(CC)CC)/N=C(/N)Nc1ccc(Br)cc1,380
10,COc1ccc(NC(=O)[C@H](CC(C)C)Nc2ccnc(Nc3ccccc3)n2)cc1,1570
11,Cc1cc(CNC(=O)[C@H](CC2CCCCC2)Nc2ccc(C#N)c3ccccc23)c(C(F)(F)F)o1,1180
12,COc1ccc(NC(=O)Nc2ccc(-c3cccc(-c4nc5c(C)cccc5[nH]4)c3)cc2)cc1,140
13,CCn1c(-c2nonc2N)nc2c(-c3cccc(NC(=O)Nc4cccc(C(F)(F)F)c4)c3)ncc(OCCCN)c21,970
14,CN1C(=O)OC[C@@H]1Cc1ccc2[nH]cc(C3=CCN(Cc4ccccc4)CC3)c2c1,420
15,C=CCc1cccc(CN2CCC(c3cc(=O)[nH]c(-c4ccccn4)n3)CC2)c1O,1100
16,O=C(/C=C/c1ccc2ccccc2c1)NCCCCCN1CCC(c2c[nH]c3ccccc23)CC1,1230
17,Cn1nc(-c2cccc(CN[C@@H]3CCc4ccc(O)cc43)c2)c2cnc(NC3CCCC3)nc21,740
18,COc1cc(F)c2ncc(Cl)c(CCN3CCC(NCc4cc5c(cn4)OCCO5)CC3)c2c1,480
19,Cc1[nH]c2ccccc2c1C(=O)C(C)Sc1n[nH]c(-c2ccccc2Br)n1 (centres undefined),30
20,Oc1ccc(CN2CCN(CCOC(c3ccccc3)c3ccccc3)CC2)cc1Cl,810
21,CCCCCCc1cc2cc(-c3nc(-c4ccc(OC)cc4)cs3)c(=O)oc2cc1O,820
22,O=C(Nc1ccc(-c2nc3ccccc3[nH]2)cc1)c1ccc([N+](=O)[O-])s1,250
23,COc1ccc(CN(C)CCCSc2ccc(NC(=O)c3cccc4c(=O)cc(-c5ccccc5)[nH]c34)cc2)cc1OC,920
24,Cc1cccc(-c2nc3cc(NC(=O)c4ccc([N+](=O)[O-])o4)ccc3o2)c1,880
